Data on 11 molecules can be found in paper PMC12138715, “Exploring Boswellia serrata Triterpenes: A New Frontier in Leukemia Inhibitory Factor Receptor Modulation” (ACS Omega, 2025).

Structures are written as SMILES.

Assay [1] concerns the target T1, leukemia inhibitory factor receptor (LIFR) (Homo sapiens, UniProt P42702).
T1 construct: Recombinant human LIFR (His-Tag)
The assay can be described thus: cell-free AlphaScreen LIF/LIFR binding inhibition; LIFR transactivation in HepG2.

In assay [2] the target is T1, leukemia inhibitory factor receptor (LIFR). The assay can be described thus: cell-free AlphaScreen LIF/LIFR binding inhibition. In general terms: Bead proximity is the source of the signal in Alpha formats.
The target is the same in assay [3]. The assay can be described thus: biochemical. Also on record: Alpha Screen inhibition of biotinylated LIF binding to His-tagged human LIFR. To be noted: LIF/LIFR binding. As to the method:
Amplified Luminescent Proximity Homogeneous Assay on LIF-LIFR Recombinant human LIFR (His-Tag) and LIF (biotinylated) were purchased from Sino Biologicals (Sino Biological Europe GmbH, Dusseldorf, Germany) and R&D Systems (Abingdon, UK), respectively, and both were reconstituted as required by the manufacturer. Inhibition of LIFR/LIF binding was measured by Alpha Screen, in white, low-volume, 384-well AlphaPlates (Revvity, Italy) using a final volume of 15 μL and an assay buffer containing 25 mM Hepes (pH 7.4), 100 mM NaCl, and 0.005% Kathon. The concentration of DMSO in each well was maintained at 5% vol/vol. LIFR (His-Tag, final concentration 4.5 nM) was incubated with either the compounds or DMSO for 45 min under continuous shaking. Then, LIF was added (biotinylated, final concentration 9 nM), and the samples were incubated for 15 min prior to adding nickel chelate acceptor beads (final concentration 20 ng/μL) for 30 min. Then, streptavidin donor beads were added (final concentration 20 ng/μL), and the plate was incubated in the dark for 2 h and then read in a Victor Nivo (Revvity, Italy) Multimode Microplate Reader.

The subject of assay [4] is leukemia inhibitory factor receptor (LIFR). The assay can be described thus: cells. Details: LIFR/STAT3 luciferase reporter transactivation, LIF 10 ng/mL stimulated, Renilla normalized. To be noted: Homo sapiens, HepG2, 24 h; LIF 10 ng/mL stimulated; read-out: Transactivation Inhibition (%), 50 µM. Here is the method:
Luciferase Reporter Gene Assay To evaluate the LIFR/STAT3 signaling, HepG2 (HB, 8065 from ATCC), were seeded at 7.5 × 10^4 cells/well in a 24-well plate and maintained at 37 °C and 5% CO2 in E-MEM added with 10% FBS, 1% glutamine, and 1% penicillin/streptomycin. On day-1, cells were transiently transfected with the reporter plasmid pGL4.47[luc2P/SIE/Hygro] (CAT no. E4041 Promega, Madison, WI, USA), a vector encoding the hLIFR (CAT no. RC226327) and CD130 (IL6ST) (CAT no. RC215123, OriGene Technologies, Inc. Rockville, MD USA), and finally a vector encoding the human Renilla luciferase gene (pGL4.70) (Promega, Madison, WI, USA). On day-2, cells were primed with the cytokine LIF (10 ng/mL) alone or in combination with different compounds at the concentrations of 10 μM and 50 μM. Then, after 24 h, cellular lysate was assayed for luciferase and Renilla activities using the Firefly & Renilla Luciferase Single TubeAssay Kit (Biotium, Fremont, CA). Luminescence was measured using Glomax 20/20 luminometer (Promega, Madison, WI, USA). Luciferase activities were normalized with Renilla activities.

T1 sequence (P42702 45-1097): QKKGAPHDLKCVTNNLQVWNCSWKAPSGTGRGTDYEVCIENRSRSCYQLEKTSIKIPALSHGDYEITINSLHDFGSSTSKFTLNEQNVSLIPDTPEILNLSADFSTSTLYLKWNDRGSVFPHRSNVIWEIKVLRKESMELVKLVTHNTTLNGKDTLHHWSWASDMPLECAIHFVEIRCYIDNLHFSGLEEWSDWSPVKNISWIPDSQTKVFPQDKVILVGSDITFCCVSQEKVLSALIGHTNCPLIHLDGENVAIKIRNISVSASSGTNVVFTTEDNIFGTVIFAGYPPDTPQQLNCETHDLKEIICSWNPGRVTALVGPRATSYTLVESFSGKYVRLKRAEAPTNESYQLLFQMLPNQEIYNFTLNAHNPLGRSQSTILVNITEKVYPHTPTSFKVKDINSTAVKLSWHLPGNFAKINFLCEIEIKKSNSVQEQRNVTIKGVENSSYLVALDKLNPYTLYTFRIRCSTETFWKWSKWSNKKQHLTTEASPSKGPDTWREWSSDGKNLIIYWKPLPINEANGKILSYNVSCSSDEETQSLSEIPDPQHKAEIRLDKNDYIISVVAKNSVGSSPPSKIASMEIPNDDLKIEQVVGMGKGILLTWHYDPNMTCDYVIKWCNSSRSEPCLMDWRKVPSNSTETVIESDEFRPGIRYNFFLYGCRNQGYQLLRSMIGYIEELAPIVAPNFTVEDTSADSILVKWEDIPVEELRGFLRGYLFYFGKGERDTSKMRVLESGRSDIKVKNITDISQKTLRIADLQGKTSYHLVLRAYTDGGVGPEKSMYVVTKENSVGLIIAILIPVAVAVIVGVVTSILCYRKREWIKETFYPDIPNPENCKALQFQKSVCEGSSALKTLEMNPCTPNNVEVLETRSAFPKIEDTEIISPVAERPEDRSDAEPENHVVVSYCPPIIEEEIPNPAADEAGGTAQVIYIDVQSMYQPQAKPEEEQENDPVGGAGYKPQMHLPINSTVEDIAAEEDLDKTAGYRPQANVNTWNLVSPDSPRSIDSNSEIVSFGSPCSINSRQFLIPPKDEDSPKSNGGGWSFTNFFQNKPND
T1 sequence (P15018 23-202 partner): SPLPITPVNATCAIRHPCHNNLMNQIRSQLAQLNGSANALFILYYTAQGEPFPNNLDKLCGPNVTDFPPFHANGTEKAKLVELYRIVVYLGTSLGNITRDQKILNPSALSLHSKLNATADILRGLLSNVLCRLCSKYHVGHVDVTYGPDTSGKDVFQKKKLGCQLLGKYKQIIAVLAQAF

For `CC1(C)CC[C@]2(C)CC[C@]3(C)C(=CC[C@@H]4[C@@]5(C)CC[C@@H](O)[C@](C)(C(=O)O)[C@@H]5CC[C@]43C)[C@@H]2C1` [compound 1, (4R)-3α-Hydroxyolean-12-en-24-oic Acid], in assay [1], the IC50 (as a rule, the concentration that gives 50% inhibition) is less than 10 µM. In assay [1], `C[C@H]1[C@H](C)CC[C@]2(C)CC[C@]3(C)C(=CC[C@@H]4[C@@]5(C)CC[C@@H](O)[C@](C)(C(=O)O)[C@@H]5CC[C@]43C)[C@H]12` [compound 2, (4R)-3α-Hydroxyurs-12-en-24-oic Acid] displayed an IC50 of less than 10 µM.

Turning to `CC(=O)O[C@@H]1CC[C@@]2(C)[C@@H](CC[C@]3(C)[C@@H]2CC=C2[C@@H]4CC(C)(C)CC[C@]4(C)CC[C@]23C)[C@@]1(C)C(=O)O` [compound 3, (4R)-3α-Acetylolean-12-en-24-oic Acid], the IC50 in assay [2] (read-out: IC50) is less than 10 µM.

As for `CC(=O)O[C@@H]1CC[C@@]2(C)[C@@H](CC[C@]3(C)[C@@H]2CC=C2[C@@H]4[C@@H](C)[C@H](C)CC[C@]4(C)CC[C@]23C)[C@@]1(C)C(=O)O` [compound 4, (4R)-3α-Acetylurs-12-en-24-oic Acid], the IC50 in assay [2] (read-out: IC50) was less than 10 µM. In the case of `CC(C)=CCC[C@H](C(=O)O)[C@@H]1CC[C@]2(C)C3=C(CC[C@@]12C)[C@@]1(C)CC[C@@H](O)C(C)(C)[C@@H]1CC3` [compound 15, 3α-Hydroxytirucalla-8,24-dien-21-oic Acid], the IC50 in assay [2] is less than 10 µM. Still for that read-out and setting: with `CC(C)=CCC[C@H](C(=O)O)[C@@H]1CC[C@]2(C)C3=C(CC[C@@]12C)[C@@]1(C)CC[C@H](O)C(C)(C)[C@@H]1CC3` [compound 16, 3β-Hydroxytirucalla-8,24-dien-21-oic Acid] the figure was less than 10 µM; with `CC(C)=CCC[C@H](C(=O)O)[C@@H]1CC[C@]2(C)C3=C(CC[C@@]12C)[C@@]1(C)CCC(=O)C(C)(C)[C@@H]1CC3` [compound 17, 3-Oxotirucalla-8,24-dien-21-oic Acid], less than 10 µM.

Take `CC1(C)CCC2(C)CCC3(C)C(=CCC4C5(C)CCC(O)C(C)(C(=O)NCCS(=O)(=O)O)C5CCC43C)C2C1` (stereo not shown) [compound 21, 21]: in assay [3], 10 µM produced 45.4% inhibition and the inhibition (in general, how much of the control response was suppressed) at 50 µM worked out at 67.7%. The inhibition at 50 µM in assay [4] is 68.8%.

In assay [3], `CC1(C)CCC2(C)CCC3(C)C(=CCC4C5(C)CCC(O)C(C)(C(=O)NCC(=O)O)C5CCC43C)C2C1` (stereo not shown) [compound 22, 22] registered an inhibition at 10 µM of 51.3% and an inhibition at 50 µM of 83.7%. The inhibition at 50 µM in assay [4] came to 58.3%. For the molecule `CC1CCC2(C)CCC3(C)C(=CCC4C5(C)CCC(O)C(C)(C(=O)NCCS(=O)(=O)O)C5CCC43C)C2C1C` (stereo not shown) [compound 23, 23], at 10 µM the inhibition in assay [3] was 52.9%. Moreover, the figures for the inhibition at 50 µM in assay [3] and in assay [4] were 88.5% and 70.2%, respectively. As for `CC1CCC2(C)CCC3(C)C(=CCC4C5(C)CCC(O)C(C)(C(=O)NCC(=O)O)C5CCC43C)C2C1C` (stereo not shown) [compound 24, 24], in assay [3], the inhibition at 10 µM came to 48.7% and the inhibition at 50 µM worked out at 86.9%. Besides, the inhibition at 50 µM in assay [4] was found to be 74.8%.
